# ChEMBL document CHEMBL1153814, “Synthesis of 3-deoxypentacyclic triterpene derivatives as inhibitors of glycogen phosphorylase” (J Nat Prod, 2009)
# Biological target: T1, Glycogen phosphorylase, muscle form (Oryctolagus cuniculus, UniProt P00489)
# T1 sequence (P00489 whole entry): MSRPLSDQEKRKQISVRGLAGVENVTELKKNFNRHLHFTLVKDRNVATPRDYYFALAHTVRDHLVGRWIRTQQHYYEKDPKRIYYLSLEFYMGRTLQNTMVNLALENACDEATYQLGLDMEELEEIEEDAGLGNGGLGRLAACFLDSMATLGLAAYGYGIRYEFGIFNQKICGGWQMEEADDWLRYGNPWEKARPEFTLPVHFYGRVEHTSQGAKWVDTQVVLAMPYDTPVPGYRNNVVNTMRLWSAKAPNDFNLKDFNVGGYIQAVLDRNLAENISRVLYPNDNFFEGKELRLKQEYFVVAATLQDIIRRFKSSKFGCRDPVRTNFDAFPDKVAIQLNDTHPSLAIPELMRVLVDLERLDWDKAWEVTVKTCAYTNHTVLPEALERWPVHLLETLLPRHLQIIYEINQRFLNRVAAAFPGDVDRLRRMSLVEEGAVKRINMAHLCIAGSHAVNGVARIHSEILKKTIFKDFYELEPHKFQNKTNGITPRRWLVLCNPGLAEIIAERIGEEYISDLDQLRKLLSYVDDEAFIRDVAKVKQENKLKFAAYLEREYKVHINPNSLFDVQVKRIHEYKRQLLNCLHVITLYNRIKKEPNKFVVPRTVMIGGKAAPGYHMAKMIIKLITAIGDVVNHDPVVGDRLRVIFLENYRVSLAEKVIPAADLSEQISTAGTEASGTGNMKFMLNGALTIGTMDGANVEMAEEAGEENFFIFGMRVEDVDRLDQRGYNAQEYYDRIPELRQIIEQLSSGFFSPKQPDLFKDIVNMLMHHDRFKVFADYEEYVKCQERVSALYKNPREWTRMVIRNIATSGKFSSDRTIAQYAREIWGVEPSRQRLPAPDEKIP
# Experiment: Inhibition of rabbit muscle glycogen phosphorylase assessed as release of phosphate from glucose-1-phosphate after 25 mins
# Details: not given; call rule not given here
row,IC50,Compound
1,Not Active,CC1(C)CC[C@]2(C(=O)O)CC[C@]3(C)C(=CC[C@@H]4[C@@]5(C)C[C@@H](OC(=O)CCC(=O)O)CC(C)(C)[C@@H]5CC[C@]43C)[C@@H]2C1
2,Not Active,CC(=O)O[C@H]1CC(C)(C)[C@@H]2CC[C@]3(C)[C@H](CC=C4[C@@H]5CC(C)(C)CC[C@]5(C(=O)OCc5ccccc5)CC[C@]43C)[C@@]2(C)C1

# Same assay, conditions: read-out: IC50
row,IC50 [µM],Compound
1,75.6,CCCC(=O)O[C@H]1CC(C)(C)[C@@H]2CC[C@]3(C)[C@H](CC=C4[C@@H]5CC(C)(C)CC[C@]5(C(=O)O)CC[C@]43C)[C@@]2(C)C1
2,8.5,CC1(C)CC[C@]2(C(=O)O)CC[C@]3(C)C(=CC[C@@H]4[C@@]5(C)C[C@@H](O)CC(C)(C)[C@@H]5CC[C@]43C)[C@@H]2C1
3,28.1,COC(=O)[C@]12CCC(C)(C)C[C@H]1C1=CC[C@@H]3[C@@]4(C)C[C@H](O)CC(C)(C)[C@@H]4CC[C@@]3(C)[C@]1(C)CC2
4,15.3,CCOC(=O)[C@]12CCC(C)(C)C[C@H]1C1=CC[C@@H]3[C@@]4(C)C[C@H](O)CC(C)(C)[C@@H]4CC[C@@]3(C)[C@]1(C)CC2
5,14.7,C[C@H]1[C@H](C)CC[C@]2(C(=O)O)CC[C@]3(C)C(=CC[C@@H]4[C@@]5(C)C/C(=N\O)CC(C)(C)[C@@H]5CC[C@]43C)[C@H]12
6,16.3,CC1(C)CC[C@]2(C(=O)OCc3ccccc3)CC[C@]3(C)C(=CC[C@@H]4[C@@]5(C)C/C(=N\O)CC(C)(C)[C@@H]5CC[C@]43C)[C@@H]2C1
7,13.1,CC1(C)CC[C@]2(C(=O)O)CC[C@]3(C)C(=CC[C@@H]4[C@@]5(C)C/C(=N\O)CC(C)(C)[C@@H]5CC[C@]43C)[C@@H]2C1
8,42.4,CC(=O)O[C@H]1CC(C)(C)[C@@H]2CC[C@]3(C)[C@H](CC=C4[C@@H]5CC(C)(C)CC[C@]5(C(=O)O)CC[C@]43C)[C@@]2(C)C1
9,80.2,CCC(=O)O[C@H]1CC(C)(C)[C@@H]2CC[C@]3(C)[C@H](CC=C4[C@@H]5CC(C)(C)CC[C@]5(C(=O)O)CC[C@]43C)[C@@]2(C)C1
10,3.5,CC1(C)CC[C@]2(C(=O)O)CC[C@]3(C)C(=CC[C@@H]4[C@@]5(C)C[C@H](O)CC(C)(C)[C@@H]5CC[C@]43C)[C@@H]2C1
11,14.9,CC1(C)CC[C@]2(C(=O)O)CC[C@]3(C)C(=CC[C@@H]4[C@@]5(C)CC(=O)CC(C)(C)[C@@H]5CC[C@]43C)[C@@H]2C1

# Continued, molecule first:
row,Compound,IC50 [µM]
1,CC1CC[C@]2(C(=O)OCc3ccccc3)CC[C@]3(C)C(=CC[C@@H]4[C@@]5(C)C[C@H](O)CC(C)(C)[C@@H]5CC[C@]43C)[C@@H]2[C@H]1C (stereo partly specified),22.3
2,C[C@H]1[C@H](C)CC[C@]2(C(=O)OCc3ccccc3)CC[C@]3(C)C(=CC[C@@H]4[C@@]5(C)C[C@@H](O)CC(C)(C)[C@@H]5CC[C@]43C)[C@H]12,55.8
3,CCC(=O)O[C@H]1CC(C)(C)[C@@H]2CC[C@]3(C)[C@H](CC=C4[C@@H]5CC(C)(C)CC[C@]5(C(=O)OCc5ccccc5)CC[C@]43C)[C@@]2(C)C1,121
4,CCCC(=O)O[C@H]1CC(C)(C)[C@@H]2CC[C@]3(C)[C@H](CC=C4[C@@H]5CC(C)(C)CC[C@]5(C(=O)OCc5ccccc5)CC[C@]43C)[C@@]2(C)C1,108
5,CC1(C)CC[C@]2(C(=O)OCc3ccccc3)CC[C@]3(C)C(=CC[C@@H]4[C@@]5(C)C[C@@H](OC(=O)c6ccccc6)CC(C)(C)[C@@H]5CC[C@]43C)[C@@H]2C1,48.4
6,CC1(C)CC[C@]2(C(=O)O)CC[C@]3(C)C(=CC[C@@H]4[C@@]5(C)C[C@@H](OC(=O)c6ccccc6)CC(C)(C)[C@@H]5CC[C@]43C)[C@@H]2C1,40.7
7,CC1(C)CC[C@]2(C(=O)OCc3ccccc3)CC[C@]3(C)C(=CC[C@@H]4[C@@]5(C)C[C@@H](OC(=O)CCC(=O)O)CC(C)(C)[C@@H]5CC[C@]43C)[C@@H]2C1,80.9
8,CC1(C)CC[C@]2(C(=O)OCCCCBr)CC[C@]3(C)C(=CC[C@@H]4[C@@]5(C)C[C@H](O)CC(C)(C)[C@@H]5CC[C@]43C)[C@@H]2C1,48.7
9,C[C@@H]1[C@H]2C3=CC[C@@H]4[C@@]5(C)C[C@@H](O)CC(C)(C)[C@@H]5CC[C@@]4(C)[C@]3(C)CC[C@@]2(C(=O)OCc2ccccc2)CCC1(C)C,5.6
10,C[C@H]1[C@H](C)CC[C@]2(C(=O)OCc3ccccc3)CC[C@]3(C)C(=CC[C@@H]4[C@@]5(C)C/C(=N\O)CC(C)(C)[C@@H]5CC[C@]43C)[C@H]12,20.2
11,CC1(C)CC[C@]2(C(=O)OCc3ccccc3)CC[C@]3(C)C(=CC[C@@H]4[C@@]5(C)C[C@H](O)CC(C)(C)[C@@H]5CC[C@]43C)[C@@H]2C1,4.2
12,CCCCOC(=O)[C@]12CCC(C)(C)C[C@H]1C1=CC[C@@H]3[C@@]4(C)C[C@H](O)CC(C)(C)[C@@H]4CC[C@@]3(C)[C@]1(C)CC2,13.8
13,C=CCOC(=O)[C@]12CCC(C)(C)C[C@H]1C1=CC[C@@H]3[C@@]4(C)C[C@H](O)CC(C)(C)[C@@H]4CC[C@@]3(C)[C@]1(C)CC2,23.1
14,CCCOC(=O)[C@]12CCC(C)(C)C[C@H]1C1=CC[C@@H]3[C@@]4(C)C[C@H](O)CC(C)(C)[C@@H]4CC[C@@]3(C)[C@]1(C)CC2,27.3
15,CC1(C)CC[C@]2(C(=O)OCCBr)CC[C@]3(C)C(=CC[C@@H]4[C@@]5(C)C[C@H](O)CC(C)(C)[C@@H]5CC[C@]43C)[C@@H]2C1,25.4
16,CC1(C)CC[C@]2(C(=O)OCCCBr)CC[C@]3(C)C(=CC[C@@H]4[C@@]5(C)C[C@H](O)CC(C)(C)[C@@H]5CC[C@]43C)[C@@H]2C1,37.2
17,CC1(C)CC[C@]2(C(=O)OCc3ccccc3)CC[C@]3(C)C(=CC[C@@H]4[C@@]5(C)CC(=O)CC(C)(C)[C@@H]5CC[C@]43C)[C@@H]2C1,3.2
18,C[C@H]1[C@H](C)CC[C@]2(C(=O)OCc3ccccc3)CC[C@]3(C)C(=CC[C@@H]4[C@@]5(C)CC(=O)CC(C)(C)[C@@H]5CC[C@]43C)[C@H]12,24.2
19,CCOC(=O)COC(=O)[C@]12CCC(C)(C)C[C@H]1C1=CC[C@@H]3[C@@]4(C)C[C@H](O)CC(C)(C)[C@@H]4CC[C@@]3(C)[C@]1(C)CC2,22.5
20,C[C@H]1[C@H](C)CC[C@]2(C(=O)O)CC[C@]3(C)C(=CC[C@@H]4[C@@]5(C)C[C@@H](O)CC(C)(C)[C@@H]5CC[C@]43C)[C@H]12,1.2
21,C[C@@H]1[C@H]2C3=CC[C@@H]4[C@@]5(C)C[C@H](O)CC(C)(C)[C@@H]5CC[C@@]4(C)[C@]3(C)CC[C@@]2(C(=O)O)CC[C@@H]1C,5.5
22,C[C@H]1[C@H](C)CC[C@]2(C(=O)O)CC[C@]3(C)C(=CC[C@@H]4[C@@]5(C)CC(=O)CC(C)(C)[C@@H]5CC[C@]43C)[C@H]12,28.9
23,C[C@H]1[C@H](C)CC[C@]2(C(=O)O)CC[C@]3(C)C(=CC[C@@H]4[C@@]5(C)CC[C@H](O)C(C)(C)[C@@H]5CC[C@]43C)[C@H]12 [URSOLIC ACID],15.3
